Format in all cases: cell-based
Assay [1] relates to SARS-CoV-2 (2019-nCoV/USA-WA1/2020 strain). Particulars: 60% confluent VERO E6, 48 h.
For assay [2] the test system is unchanged. Particulars: VERO E6, 48 h.
Assay [3] shares this test system. The settings on record: 80% confluent VERO E6, 48 h.
A further assay relates to HIV-1 IIIB. The assay can be described thus: In vitro HIV-1 prevention model, TZM-bl-FcRI cells, β-galactosidase. The settings on record: TZM-bl-FcRI cells, 0.1, 0.25 and 1 μM peptide, 48 h. Here is the method: Sixty-seven (67) compounds from a library of peptides included in TABLE 1 were evaluated for inhibition of HIV-1 IIIB in TZM-bl-FcRI cells. The compounds were tested at three (3) concentrations with six (6) replicates each for efficacy and toxicity for 48 hours in this model. Virus was diluted 1:128, based on a previous titration. The test article was dissolved in DMSO to generate a stock solution, and dosing solutions were prepared by dilution of the stock solution using the appropriate volume of PBS. These dosing solutions were mixed with predetermined volumes of the virus suspension, based on the titration data, and were incubated for 30 min at 37° C./5% CO2.
Following incubation, the virus/compound mixture was added to pre-plated TZM-bl-FcRI cells and the necessary volume of assay media (based on the titration). The culture was incubated for six hours under the above conditions and then washed to remove residual virus and compound. The cultures were incubated for an additional 48 hours at 37° C./5% CO2 before measuring β-galactosidase in the wells using a chemiluminescent endpoint.
The study was carried out using a 96-well format. The first row of 12 wells was used as a negative control (cells with no virus or test compound added). […] Peptide 346-001 served as a positive control on each plate, such that three other test compounds could be evaluated per plate. […]

Read-outs that look alike come from different tables or passages of the source. Some results are limits rather than exact numbers.

With GSWLRDIWDWICEVLSDFK [Peptide 346-003], the “dose response curve shape” value in assay [1] was “unexpected and unusual dose response curve shape”. Take “SWLRDIWDWICEVLSDFK [Peptide 346-001, virucidal amphipathic α-helical peptide derived from the hepatitis C virus (HCV) NS5A membrane anchor domain]”: the “reduction on viral copy numbers” value is recorded as > 5 orders of magnitude in assay [2] (50 μM dosing concentration) and > 7 orders of magnitude in assay [2] (125 μM dosing concentration). In addition, in assay [2], the “potency against SARS-CoV-2 infection” value is “high potency”.

Take SIWRDWVDLICEFLSDWK [Peptide 346-007]: in assay [3], the dose-response relationship result is “steep dose response relationship” and the “potency relative to the other peptides tested” value is “ca. double”.

For the substance “Ac-SWLRDIWDWICEVLSDFKC(succinimido-propionylaminoethyl-mPEG2K)-NH2 (Ac-SWLRDIWDWICEVLSDFKC(succinimido‑propionylaminoethyl‑mPEG2K)-NH2) [Peptide 346-064]”, the “potency against HIV-1 compared with peptide 346-001” value in the assay on HIV-1 IIIB was “increase in potency”.
